This note sets out measurements from article PMC7707092, “Discovery and characterization of ORM‐11372, a novel inhibitor of the sodium‐calcium exchanger with positive inotropic activity” (British Journal of Pharmacology, 2020).

As usually defined, the inhibition is the change of the read-out against control, counted positive when it falls. For orientation: IC50 means the concentration needed to halve the response being measured.

Assay [1] has as its target T1, rat NCX 1.1 current (I NCX) (Rattus norvegicus, UniProt Q01728).
T1 construct: In rat primary ventricular CMs, the magnitude of outward I NCX; endogenous in cells; host or cells: freshly isolated left ventricular cardiomyocytes of male Wistar rats
The experiment in a line: NCX current (I NCX), whole‐cell patch‐clamp in rat ventricular cardiomyocytes. It is filed as cell-based. Here is the method: Rats were anaesthetized with sodium thiopental (0.1 g·kg^−1, i.p.) and injected with heparin sodium (500 IU, i.v.). Hearts were rapidly excised, mounted via the aorta on a Langendorff apparatus, and retrogradely perfused at 37°C with the Krebs–Henseleit solution for 5 min, with Krebs‐Henseleit solution (composition (in mM): 118.5 NaCl, 4 KCI, 2 CaCl2, 1 MgSO4, 1.2 NaH2PO4, 25 NaHCO3, and 11.1 glucose), pH 7.4 when saturated with a mixture of 95% O2 and 5% CO2. The perfusion of the heart was continued using Ca^2+‐free Krebs–Henseleit solution for 10 min, and completed by the addition of 0.05% collagenase (type I), 0.05% hyaluronidase, and 200‐μM CaCl2, for a further 10 min. Subsequently, the left ventricular myocardium was minced and gently agitated. Dissociated cells were stored at room temperature in a solution containing (in mM) 89 KOH, 70 glutamate, 15 taurine, 30 KCI, 10 KH2PO4,10 HEPES, 0.5 MgCl2, 11 glucose, and 0.5 EGTA, and the pH was set to 7.3 using KOH. […] One drop of the cell suspension was placed in a recording chamber and mounted on the stage of an inverted microscope (Olympus IX51, Olympus, Japan), and the individual myocytes were allowed to settle and adhere to the bottom of the chamber for at least 5 min before initiating superfusion.
Manual patch‐clamp recordings of membrane currents (I NCX, L‐type Ca^2+ channel current [I CaL], human cardiac sodium 1.5 current [I Na], and I hERG) were undertaken using either an Axopatch 200B or Axopatch ID amplifier (Molecular Devices, USA), using the whole‐cell configuration. Cells were at least initially (except when recording I Na) perfused with an extracellular solution consisting of (in mM) 143 NaCl, 4 KCl, 1.8 CaCl2, 1.2 MgCl2, 5 glucose, and 10 HEPES (pH 7.4 with NaOH; osmolarity adjusted to 301 ± 3 mOsm). A slightly modified version was used for the rat ventricular CMs (in mM: 144 NaCl, 0.4 NaH2PO4, 4.0 KCl, 1.8 CaCl2, 0.53 MgSO4, 5.5 glucose, and 5.0 HEPES). Patch pipettes were pulled with a P‐2000 or P‐97 micropipette puller (Sutter Instruments, USA) from borosilicate glass capillaries and had resistances of between 2 and 4 MΩ when filled with any of the pipette solutions (see below). The data were filtered at 1 or 2 kHz and digitized at 10 kHz with acquisition and analysis performed by use of pClamp software (Versions 8–10; Molecular Devices; RRID:SCR_011323).
After the establishment of the whole‐cell configuration with hiPSC‐derived CMs or rat ventricular myocytes, the extracellular solution was switched to a K^+‐free bath solution as described earlier (Hobai, Khananshvili, & Levi, 1997; Jost et al., 2013). The solution was composed of (in mM) 135 NaCl, 10 CsCl, 1 CaCl2, 1 MgCl2, 0.2 BaCl2, 0.33 NaH2PO4, 10 TEACI, 10 HEPES, and 10 glucose supplemented with 20‐μM ouabain, 50‐μM lidocaine, and 1‐μM nisoldipine or 2‐μM nitrendipine at pH 7.0 (osmolarity adjusted to 301 ± 3 mOsm). The pipette solution contained (in mM) 140 CsOH, 75 aspartic acid, 20 TEACI, 5 MgATP, 10 HEPES, 20 NaCl, 20 EGTA, and 10 CaCl2 (pH adjusted to 7.2 with CsOH; osmolarity adjusted to 290 ± 2 mOsm). The free intracellular Ca^2+ level in the patch pipette was 140 nM according to Maxchelator (RRID:SCR_000459) software (Bers, Patton, & Nuccitelli, 2010).
The measurement of current in the K^+‐free bath solution using a ramp voltage protocol at 20‐s intervals represented the first control, after which values were measured in the presence of one or more increasing concentrations of ORM‐11372 and finally upon exposure to 10‐mM NiCl2. The voltage protocol consisted of voltage ramps (at a rate of 100 mV·s^−1) with a holding potential of […], which changed to −100 mV and then returned to −40 mV. I NCX was defined as the Ni^2+‐sensitive current value. However, for rat ventricular myocytes, the magnitude of the inward current (forward mode) was particularly small and variable. […]

Assay [2] addresses 5‐HT2B receptor (Homo sapiens, UniProt P41595). The experiment in a line: 5‐HT2B agonist and antagonist assay, intracellular calcium in CHO–5‐HT2B cells. It is filed as cell-based. The source says:
The hERG‐encoded voltage‐dependent potassium channel current (I hERG) cells to be studied were harvested with Detachin solution and either diluted with a volume of CHO cell serum‐free media (supplemented with 100 IU·ml^−1 of penicillin/streptomycin and 25‐mM HEPES) to obtain cells, for which the cell density was ~4 x10^6 cells·ml^−1, or plated on glass coverslips and used on the following 1–2 days. HEK 293 cells were transiently transfected using lipofectamine (Invitrogen, USA), with a human sodium voltage‐gated channel subunit 5 (hSCN5) A (transcript variant 2)‐containing plasmid, in Optimem medium. After a 5‐h incubation period, the transfection medium was replaced with the normal growth medium. The cells were harvested by trypsinization, centrifuged and resuspended in the appropriate extracellular solution for performing studies the next day. CHO–5‐HT2B cells were plated into 96‐well plates on the previous day, at a density of 4 x10^4 cells per well, with a modified version of the growth media.
Changes in the intracellular calcium concentration of CHO–5‐HT2B cells in the probenecid‐R inger were measured, using Fluo‐4 or calcium 3 dyes and the FLEXstation, at 37°C. […]

SMILES strings stand for the structures. Values joined by “and” are separate entries in the source; they are usually repeats but may differ in a detail not shown here. Equal values may be shown once. Read-outs that look alike come from different tables or passages of the source.

5‐HT2B receptor, sequence (P41595 whole entry): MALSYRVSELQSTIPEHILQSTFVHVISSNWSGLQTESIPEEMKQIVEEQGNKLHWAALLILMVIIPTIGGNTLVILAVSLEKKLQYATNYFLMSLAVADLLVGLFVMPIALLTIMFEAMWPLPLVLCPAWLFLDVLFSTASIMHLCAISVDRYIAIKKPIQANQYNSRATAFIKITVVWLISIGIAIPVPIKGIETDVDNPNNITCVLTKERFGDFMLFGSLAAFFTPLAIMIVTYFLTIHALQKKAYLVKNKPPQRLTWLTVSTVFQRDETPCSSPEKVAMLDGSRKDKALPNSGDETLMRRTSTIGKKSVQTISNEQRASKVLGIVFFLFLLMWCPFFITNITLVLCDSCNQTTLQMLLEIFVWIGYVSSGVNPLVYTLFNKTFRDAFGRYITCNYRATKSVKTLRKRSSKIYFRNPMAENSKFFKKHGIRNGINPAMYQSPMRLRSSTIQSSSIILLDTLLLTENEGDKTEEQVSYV

With `Nc1cccc(-c2ccc(CNc3ccc(F)cc3)o2)c1` [ORM‐11372], in assay [1] (4 nM, read-out: in vitro NCX 1.1 current inhibition), the inhibition at 0.004 µM was determined as 34%. Moreover, the inhibition at 0.036 µM in assay [1] (36 nM, read-out: in vitro NCX 1.1 current inhibition) was 67%. Further, in assay [1] (92 nM, read-out: in vitro NCX 1.1 current inhibition), the inhibition at 0.092 µM was found to be 79%. In addition, the inhibition at 0.351 µM in assay [1] (351 nM, read-out: in vitro NCX inhibition) amounted to 90%. Moreover, the IC50 in assay [1] (rat CMs, summarised (discussion), read-out: IC50 rat NCX 1.1 currents) is 10 nM; in assay [1] (rat primary ventricular CMs, read-out: IC50 outward I NCX (reverse mode)), 11.3 nM and 11 nM. The inhibition at 0.01 µM in assay [1] (rat ventricular CMs, 10 nM, altered conditions to enhance inward current, n=3, read-out: inhibition of inward I NCX (forward mode)) was found to be 53.8 ± 3.9%. The “agonist activity at 5‐HT2B receptors” value in assay [2] was “no agonist activity”. For the same compound, in assay [2] (10 μM, evoked by 10‐nM 5‐HT, read-out: inhibition of 5‐HT2B receptor‐mediated increase in intracellular calcium), the inhibition at 10 µM turned out to be 38%.
